Four compounds from ChEMBL document CHEMBL1158926, “Norsesterterpenes from the North Adriatic Sponge Ircinia oros” (J Nat Prod, 1990) can be followed below.

The structures appear in SMILES notation. ≈ marks a conversion by molar mass, not a printed value.

The nature of this series: Toxicity against Artemia salina. Format: organism-based. Particulars: in vivo, read-out: LD50 (the source's name).

Regarding `C/C(=C\CCc1coc(Cc2ccoc2)c1)CCCC(C)CC(=O)C(O)C(C)Cl` (centres undefined), the LC50 turned out to be 8.2 µg/mL (≈ 19.5 µM).

For the compound `C/C(=C/CCC(C)CC(=O)C(O)C(C)Cl)CCCc1coc(Cc2ccoc2)c1` (centres undefined), the LC50 worked out at 8.6 µg/mL (≈ 20.4 µM).

On to `CC1=C(O)/C(=C/[C@H](C)CCC/C(C)=C/CCc2coc(Cc3ccoc3)c2)OC1=O` [IRCININ 1], for which the LC50 stood at 2.4 µg/mL (≈ 5.85 µM).

`CC1=C(O)/C(=C/[C@H](C)CC/C=C(/C)CCCc2coc(Cc3ccoc3)c2)OC1=O` [IRCININ 2]: the LC50 is 2.7 µg/mL (≈ 6.58 µM).
